Experiments:
[1] = tested on: control SEQ ID NO:14 HPPD; experiment: time course of inhibition of enzyme activity, control enzyme; type: biochemical, Avena sativa; conditions: artifact of the method due to fast off rate during the 150 s assay
[2] = tested on: tobacco plants expressing HPPD SEQ ID NO:14; experiment: herbicide spray test on transgenic tobacco; type: in vivo; conditions: 13 DAT
[3] = tested on: G408A mutant of HPPD SEQ ID NO:14; experiment: time course of inhibition of enzyme activity; type: biochemical, Avena sativa
[4] = tested on: Jack w/t; experiment: herbicide spray test on soybean; type: in vivo; conditions: V2 growth stage, 14 DAT, average of n=7
Experimental: (§1) Each data point represents the average damage score from n=7 replicates.
(§2) Plants were in 4×4×4 inch plastic pots and grown under a 15/9 hour light regime (daylight supplemented by artificial light in greenhouses) at a minimum night-time temperature of 18° C. and maximum daytime temperature of 27° C. Soil was regular VBRC mix (1:1 mixture of Vero field soil and Fafard Mix II) where Vero field soil is 98% sand and 2% clay. […] Spray volume was 150 L/ha and the damage scores reflect assessments at 14 DAT.

[5] = tested on: soybean event 2 (vector 15764) expressing SEQ ID NO:14; experiment: herbicide spray test on soybean events; type: in vivo; conditions: event 2/SEQ#14, V2 growth stage, 14 DAT, average of n=7
Description: as §1
(§3) These events were used to compare the performance of five 17147 events. Four of these, SF, S8, S7 and S3 had not been preselected for tolerance level (other than to confirm resistance, non-chimerical nature and the presence of the gene) while the remaining event, T0, had been preselected as the most resistant out of five 17147 events in a preliminary field test.
as §2

[6] = tested on: soybean event 1 (vector 15764) expressing SEQ ID NO:14; experiment: herbicide spray test on soybean events; type: in vivo; conditions: event 1/SEQ#14, V2 growth stage, 14 DAT, average of n=7
Description: as §1, §3, §2

[7] = tested on: soybean event SF (vector 17147) expressing SEQ ID NO:24; experiment: herbicide spray test on soybean events; type: in vivo; conditions: event SF/SEQ#24, V2 growth stage, 14 DAT, average of n=7
Description: as §1, §3, §2

[8] = tested on: soybean event S3 (vector 17147) expressing SEQ ID NO:24; experiment: herbicide spray test on soybean events; type: in vivo; conditions: event S3/SEQ#24, V2 growth stage, 14 DAT, average of n=7
Description: as §1, §3, §2

[9] = tested on: soybean event T0 (vector 17147) expressing SEQ ID NO:24; experiment: herbicide spray test on soybean events; type: in vivo; conditions: event T0/SEQ#24, V2 growth stage, 14 DAT, average of n=7
Description: as §1, §3, §2

[10] = tested on: soybean event S8 (vector 17147) expressing SEQ ID NO:24; experiment: herbicide spray test on soybean events; type: in vivo; conditions: event S8/SEQ#24, V2 growth stage, 14 DAT, average of n=7
Description: as §1, §3, §2

[11] = tested on: soybean event S7 (vector 17147) expressing SEQ ID NO:24; experiment: herbicide spray test on soybean events; type: in vivo; conditions: event S7/SEQ#24, V2 growth stage, 14 DAT, average of n=7
Description: as §1, §3, §2

[12] = tested on: tobacco plants expressing HPPD SEQ ID NO:24; experiment: herbicide spray test on transgenic tobacco; type: in vivo; conditions: 13 DAT
[13] = tested on: HPPD SEQ ID NO:26; experiment: biochemical; type: binding, Avena sativa; conditions: off rate, FIGS. 4A-4C
Experimental: On rates (governed by an association rate constant, kon) for the formation of the enzyme: inhibitor complexes, EI and off rates (governed by a dissociation rate constant, koff) were determined by methods known in the art and essentially as described in Hawkes et al. (2001) Proc. Bright. Crop. Prot. Conf. Weeds, 2:563-568 and in PCT Patent App. Pub. No. WO 02/46387).
For example, on rates were measured by, at zero time, adding ˜60 pmoles HPPD to 50 mM BisTrisPropane buffer at pH7.0 and at 25° C. containing 25 mM Na ascorbate, 4 μg/ml bovine catalase (Sigma, St. Louis, Mo.) and an excess (˜300 pmoles) of ^14C inhibitor in a total assay volume of 425 μl and, at various time points (0-180 s), quenching the radiolabel binding reaction by addition and rapid mixing of 100 μl ‘cold’ 1 mM structure A. Protein samples quenched at different times were then exchanged into 50 mM BisTrisPropane buffer at pH 7.0 containing 0.1M KCl by rapid chromatography down a NAP5 G25 Sephadex column (GE Healthcare Ltd, Buckinghamshire UK) and the amount of ^14C bound to protein fractions quantified in Optiphase scintillant using a Tri-Carb 2900TR scintillation counter (Perkin Elmer, Wellesley, Mass.). The data were fit according to the scheme below in order to derive the value of the apparent second order rate constant, k2, governing the association rate of enzyme and radiolabelled inhibitor. […]

[14] = tested on: E. coli BL21 cells expressing HPPD SEQ ID NO:24; type: cell-based; conditions: 20 ppm sulcotrione (data not shown)
Experimental: (§4) Cells were grown from a 10% starting inoculum into 0.5 ml of L-broth containing 50 μg of kanamycin ml^−1 in […] for 48-96 h at 15° C. Typically pyomelanin colour in the medium was read (at 430 nm) after ˜72 h.

[15] = tested on: E. coli cells expressing mutant G408A; conditions: 25 ppm sulcotrione
Experimental: as §4

[16] = 300 g/ha, smaller-sized population
[17] = 500 g/ha, larger-sized population

Q: `CS(=O)(=O)c1ccc(C(=O)C2C(=O)CCCC2=O)c([N+](=O)[O-])c1` [Structure B, mesotrione] was tested. Which residual activity [1] did it give?
A: ~8%

Q: And the “plants exhibiting visible herbicide damage (number of plants)” value [2, 16]?
A: 4 of 26

Q: And the plants exhibiting damage [2, 17]?
A: 27%

Q: What about the residual activity ([3]; 0.6 μM B, enzyme about 75 nM, incubation up to 260 s, inhibition levelled off) of the same compound?
A: about 35%

Q: And the “radiochemically determined off rate compared with control SEQ ID NO:14 HPPD” value ([3]; ice temperature)?
A: indistinguishable

Q: And the “extent of inhibition compared with the control enzyme” value ([3]; inhibitor at 0.15 or 0.6 μM)?
A: to a lesser extent

Q: What about the “% dam.” value ([4]; B 420 g/ha) of the same compound?
A: 82.9%

Q: And the “% dam.” value ([4]; B 840 g/ha)?
A: 83.6%

Q: What about the “% dam.” value ([5]; B 420 g/ha) of the same compound?
A: 20.7%

Q: And the “% dam.” value ([5]; B 840 g/ha)?
A: 22.1%

Q: What about the “% dam.” value ([6]; B 420 g/ha) of the same compound?
A: 11.4%

Q: What about the “% dam.” value ([6]; B 840 g/ha) of the same compound?
A: 9.3%

Q: What about the “% dam.” value ([7]; B 420 g/ha) of the same compound?
A: 15.7%

Q: What about the “% dam.” value ([7]; B 840 g/ha) of the same compound?
A: 25%

Q: And the “% dam.” value ([8]; B 420 g/ha)?
A: 15.3%

Q: And the “% dam.” value ([8]; B 840 g/ha)?
A: 15.3%

Q: And the “% dam.” value ([9]; B 420 g/ha)?
A: 8.3%

Q: What about the “% dam.” value ([9]; B 840 g/ha) of the same compound?
A: 5.3%

Q: What about the “% dam.” value ([10]; B 420 g/ha) of the same compound?
A: 18.6%

Q: And the “% dam.” value ([10]; B 840 g/ha)?
A: 19.3%

Q: What about the “% dam.” value ([11]; B 420 g/ha) of the same compound?
A: 10.6%

Q: What about the “% dam.” value ([11]; B 840 g/ha) of the same compound?
A: 6.9%

Q: And the “plants exhibiting visible herbicide damage (number of plants)” value [12, 16]?
A: 2 of 28

Q: And the “plants exhibiting symptoms of herbicide damage” value [12, 17]?
A: 10%

Q: And the “plants exhibiting symptoms of herbicide damage (number of plants)” value [12, 17]?
A: 4 of 38

Q: What about the “dissociation from HPPD SEQ ID NO:26 compared with HPPD SEQ ID NO:24” value [13] of the same compound?
A: about twice as fast

Q: For `CS(=O)(=O)c1ccc(C(=O)C2C(=O)CCCC2=O)c(Cl)c1` [sulc, sulcotrione], which “tolerance in pyomelanin assay” value [14] is on record?
A: enhanced tolerance

Q: What about the “resistance in pyomelanin assay” value [15] of the same compound?
A: resistance relative to HPPD SEQ ID NO:14

Source: patent US9175305B2, “Mutant hydroxyphenylpyruvate dioxygenase polypeptides and methods of use” (Syngenta Participations AG, priority 2009, dated 2015)
